From PMC10786919, “Design-rules for stapled peptides with in vivo activity and their application to Mdm2/X antagonists” (Nature Communications, 2024)
Read-outs that look alike come from different tables or passages of the source. Positions of bridges follow the written chain, without caps; N, C: chain ends. Non-standard residues stand in square brackets, D forms with d. Residues, ends and D or L forms follow the SMILES beside them. 2Nal = N[C@@H](Cc1ccc2ccccc2c1)C(=O)O; R8 = C=CCCCCCC[C@@](C)(N)C(=O)O; S5 = C=CCCC[C@](C)(N)C(=O)O

How the values were obtained:
[1] = target: T1, human Mdm2 1–125 (Homo sapiens, UniProt Q00987); test: Mdm2 binding by competitive fluorescence anisotropy assay (FP binding); conditions: read-out: FP binding assay KD
T1 construct: GST (N); His6 (internal); TEV cleavage site (ENLYFQG) (internal); made in house; host or cells: BL21 (DE3) Rosetta T1R Escherichia coli
T1 sequence (Q00987 with tags, fused parts or gaps): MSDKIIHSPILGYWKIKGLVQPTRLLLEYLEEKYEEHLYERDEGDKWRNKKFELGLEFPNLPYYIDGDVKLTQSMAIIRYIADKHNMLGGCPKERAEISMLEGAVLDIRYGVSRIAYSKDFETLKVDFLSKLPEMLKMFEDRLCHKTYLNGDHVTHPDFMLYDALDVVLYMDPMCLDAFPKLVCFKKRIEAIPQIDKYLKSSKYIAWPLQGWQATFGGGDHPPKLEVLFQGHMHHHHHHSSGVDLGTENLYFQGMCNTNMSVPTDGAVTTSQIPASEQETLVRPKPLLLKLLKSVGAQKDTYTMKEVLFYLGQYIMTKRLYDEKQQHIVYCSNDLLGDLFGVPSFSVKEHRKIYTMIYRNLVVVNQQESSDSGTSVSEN
Description: The TEV (tobacco etch virus) cleavage site was changed from ENLYFQS to ENLYFQG to give a fusion protein with the following sequence:
[P] is the protein concentration (Mdm2), [L] is the labeled peptide concentration, r is the anisotropy measured, r0 is the anisotropy of the free peptide, rb is the anisotropy of the Mdm2–FAM-labeled peptide complex, Kd is the dissociation constant, [L]t is the total FAM labeled peptide concentration, and [P]t is the total Mdm2 concentration. […] This value was then used to determine apparent Kd values of the respective competing ligands in subsequent competition assays in fluorescence anisotropy experiments.
The competing molecules were then titrated against the complex of the FAM-labeled peptide and protein. Apparent Kd values were determined by fitting the experimental data to equations shown below:2 r=ro+(rb−ro)×2(d^2−3e)cos(θ/3)−9/3Kd1+2(d^2−3e)cos(θ/3)−d 3 d=Kd1+Kd2+[L]st+[L]t−Pt 4 e=Lt−PtKd1+Lst+PtKd2+Kd1Kd2 5 f=−Kd1Kd2[P]t 6 θ=arcos−2d^3+9de−27f/2(d^2−3e)^3
[L]st and [L]t denote labeled ligand and total unlabeled ligand input concentrations, respectively. Kd2 is the dissociation constant of the interaction between the unlabeled ligand and the protein. In all competition experiments, it is assumed that [P]t > [L]st, otherwise considerable amounts of free labeled ligand would always be present and would interfere with measurements. […] The FAM-labeled peptide was dissolved in dimethyl sulfoxide (DMSO) at 1 mM and diluted into experimental buffer. Readings were carried out with an Envision Multilabel Reader (PerkinElmer). […] Curve-fitting was carried out using Prism 4.0 (GraphPad). […] Negative control titrations of the ligands under investigation were also carried out with the fluorescently labeled peptide (in the absence of Mdm2) to ensure no interactions were occurring between the ligands and the FAM-labeled peptide. […] Measurements were taken a minimum of three times (biological replicates) and values are reported as geometric means of the replicates.

[2] = system: p53 responsive β-lactamase reporter in HCT116 cells; test: cells; format: cell-based
In short: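 Read-out used the ToxBLAzer Dual Screen for β-lactamase driven by a stably integrated p53-responsive reporter. Assay: 8000 HCT116 cells per well at 0.5% final DMSO. Reported numbers are geometric means over a minimum of three biological replicates.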

[3] = system: Jump-In T-REx CHO-K1 BLA cells; test: cells; format: cell-based; conditions: for EC50: read-out: TETCHO: Counterscreen EC50
[4] = Solubility assay (kinetic solubility, PBS pH 7); format: physicochemical; conditions: pH 7, PBS
In short: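 Quantitation uses an external standard at 100 µM, prepared from 10 mM stock in acetonitrile:methanol:DMSO (10:80:10). Solubility (µM) = (peak area of sample ÷ peak area of standard) × standard concentration.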

[5] = EPSA; format: physicochemical
[6] = Experimental LogD (partition coefficient)
[7] = Lactate dehydrogenase (LDH) release assay; format: cell-based; conditions: LDH: Cytotoxicity assay EC50
In short: (§1)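 Geometric means of at least three independent biological runs are given for LDH release measured in HCT116 cells stably expressing a p53-driven β-lactamase reporter. Plating density was 8000 cells/well; DMSO in wells was 0.5%.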

[8] = system: HCT116 cells; test: Lactate dehydrogenase (LDH) release assay; format: cell-based
In short: as §1

[9] = system: cells transiently transfected with the NanoLuc-HaloTag vector; test: Nanoclick permeability assay; conditions: Glu scan
In short: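 Azido-peptide permeability was read as loss of NanoBRET signal (donor 450 nm, acceptor 610 nm) after adding NanoBret618-azide at 10 μM final.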

[10] = 0% FBS 4Hr, read-out: p53 reporter assay EC50

SMILES | Kd [1] [nM] | p53 reporter assay: % Effect ([2]; 0% FBS 4Hr) [%] | EC50 ([2]; 0% FBS 4Hr, read-out: p53 reporter assay: EC50) [µM] | p53 reporter assay: % Effect ([2]; 0% FBS 16Hr) [%] | EC50 ([2]; 0% FBS 16Hr, read-out: p53 reporter assay: EC50) [µM] | TETCHO: Counterscreen % Effect ([3]; 0% FBS 4Hr) [%] | EC50 ([3]; 0% FBS 4Hr) [µM] | TETCHO: Counterscreen % Effect ([3]; 0% FBS 16Hr) [%] | EC50 ([3]; 0% FBS 16Hr) [µM] | Solubility [4] | EPSA [5] | Partition Coeff LogD [6] | EC50 [2, 10] [µM] | EC50 [7] [µM] | LDH: Cytotoxicity assay % Effect [8] [%] | shift of NanoClick permeability vs MP-081 [9]
CC(=O)N[C@@H](CC(C)C)C(=O)N[C@H](C(=O)N[C@@H](Cc1ccccc1)C(=O)N[C@]1(C)CCCCCCC=CCCC[C@@](C)(C(=O)N[C@@H](CO)C(=O)N[C@@H](C)C(=O)N[C@@H](C)C(N)=O)NC(=O)[C@H](CC(C)C)NC(=O)[C@H](CCC(N)=O)NC(=O)[C@H](C)NC(=O)[C@H](Cc2c[nH]c3ccccc23)NC(=O)[C@H](Cc2ccc(O)cc2)NC(=O)[C@H](CCC(=O)O)NC1=O)[C@@H](C)O [MP-211] | 67.8 | 96.16 | 0.731 | 100.4 | 1.48 | 40.04 | 48.5 | 114.5 | 25.2 | 177 | 201 | 2.82 | – | – | – | –
CC(=O)N[C@@H](CCCCN)C(=O)N[C@@H](CCCCN)C(=O)N[C@H](C(=O)N[C@@H](CO)C(=O)N[C@@H](Cc1ccccc1)C(=O)N[C@]1(C)CCCCCCC=CCCC[C@@](C)(C(N)=O)NC(=O)[C@H](CC(C)C)NC(=O)[C@H](CC(C)C)NC(=O)[C@H](C)NC(=O)[C@H](Cc2c[nH]c3ccccc23)NC(=O)[C@H](Cc2ccc(O)cc2)NC(=O)[C@H](CCC(=O)O)NC1=O)[C@@H](C)O [MP-142] | 42.2 | – | – | – | – | 22.09 | 20.2 | – | – | – | – | – | 15.2 | 46.7 | 72.79 | –
CC(=O)N[C@H](C(=O)N[C@@H](CO)C(=O)N[C@@H](Cc1ccc2ccccc2c1)C(=O)N[C@]1(C)CCCCCCC=CCCC[C@@](C)(C(=O)N[C@@H](CO)C(=O)N[C@@H](C)C(=O)N[C@@H](C)C(=O)N[C@@H](CCC(=O)O)C(N)=O)NC(=O)[C@H](CC(C)C)NC(=O)[C@H](CC(C)C)NC(=O)[C@H](C)NC(=O)[C@H](Cc2c[nH]c3ccccc23)NC(=O)[C@H](Cc2ccc(O)cc2)NC(=O)[C@H](CCC(=O)O)NC1=O)[C@@H](C)O [MP-144] (Ac-TS[2Nal][R8]EYWALL[S5]SAAE-NH2; staple 4-11) | 46700 | – | – | – | – | -3.58 | > 50 | – | – | – | – | – | 5.01 | 15.6 | 83.26 | –
CC(=O)N[C@@H](CCCCN=[N+]=[N-])C(=O)NCCC(=O)N[C@@H](CC(C)C)C(=O)N[C@H](C(=O)N[C@@H](Cc1ccccc1)C(=O)N[C@]1(C)CCCCCCC=CCCC[C@@](C)(C(=O)N[C@@H](CO)C(=O)N[C@@H](C)C(=O)N[C@@H](C)C(N)=O)NC(=O)[C@H](CC2CCC2)NC(=O)[C@H](CCC(N)=O)NC(=O)[C@H](C)NC(=O)[C@H](CCC(=O)O)NC(=O)[C@H](Cc2ccc(O)cc2)NC(=O)[C@H](CCC(=O)O)NC1=O)[C@@H](C)O [Peptide W7E] | – | – | – | – | – | – | – | – | – | – | – | – | – | – | – | ~ 34 x
CC(=O)N[C@H](C(=O)N[C@@H](CO)C(=O)N[C@@H](Cc1ccc2ccccc2c1)C(=O)N[C@]1(C)CCCCCCC=CCCC[C@@](C)(C(N)=O)NC(=O)[C@H](CC(C)C)NC(=O)[C@H](CC(C)C)NC(=O)[C@H](C)NC(=O)[C@H](Cc2c[nH]c3ccccc23)NC(=O)[C@H](Cc2ccc(O)cc2)NC(=O)[C@H](CCC(=O)O)NC1=O)[C@@H](C)O [MP-145] (Ac-TS[2Nal][R8]EYWALL[S5]-NH2; staple 4-11) | 4330 | – | – | – | – | 30.02 | > 50 | – | – | – | – | – | 23.8 | 36.5 | 48.85 | –
